According to patent publication US8846327B2, “Method of quantifying autoinducer-2” (priority 2007, dated 2014):

What was measured:
[1] = tested on: Vibrio harveyi BB170 strain; conditions: Keersmaecker et al.; reporter strain of Vibrio harveyi; activity detected at considerably higher concentration than DPD; cited from earlier work
[2] = tested on: Vibrio harveyi BB170 strain; assay: AI-2 reporter bioassay: photogenesis intensity of Vibrio harveyi BB170 reporter bacterium; type: cell-based
Procedure: An HMF authentic preparation (SIGMA) and a DPD authentic preparation (examination of synthesis was requested to OMM Scientific, and a product synthesized by the company was purchased) were added at a final concentration of 0.001 to 1000 μM to a Vibrio harveyi BB170 strain (purchased from ATCC, cultured under aerobic conditions at 30° C. in a marine medium (manufactured by Difco)) used as an autoinducer-2 (AI-2) reporter bacterium. The photogenesis intensity as the index of the AI-2 activity was measured in the same way as in Keersmaecker S. C. J. et al., J. Biol. Chem., 280(20), pp. 19563-19568, 2005. Namely, the Vibrio harveyi BB170 strain was diluted to 5000-fold as a final concentration with an AB medium (for example, see Bassler et al., Mol. Microbiol., 9, pp. 773-786, 1993), and the reporter bacterium liquid and the authentic preparations were mixed at a volume ratio of 9:1, followed by culturing with aerobic shaking at 30° C. Four hours later, the photogenesis intensity was measured using a chemiluminescence analyzer (Berthold, Mitharas LB940 (product name), detecting chemiluminescence). FIG. 1 illustrates a correlation between the concentrations of the HMF authentic preparation and DPD authentic preparation, and the photogenesis intensity. The HMF authentic preparation and DPD authentic preparation were prepared in glass containers. […]

AI-2 = conditions: Niu C. et al., Lett. Appl. Microbiol. 2006; cited from earlier work

Row | SMILES | autoinducer-2 activity [1] | HMF concentration detectable in the bioassay ([2]; calibration curve prepared using glass containers) | HMF-induced photogenesis intensity of the reporter bacterium compared with autoinducer-2 ([2]; reporter bacterium light emission) | AI-2-inhibiting activity (AI-2)
1 | CC1=C(O)C(=O)CO1 [HMF, 4-hydroxy-5-methyl-3(2H)-furanone] | has an autoinducer-2 activity | ≤ 0.1 µM | lower than the photogenesis intensity induced by autoinducer-2 | –
2 | O=CC=Cc1ccccc1 [Cinnamaldehyde, 3-phenyl-2-propenal] | – | – | – | having an AI-2-inhibiting activity
